Measured values published in ChEMBL document CHEMBL1201862, “PubChem BioAssay data set” (2004).
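Interpolation was linear, between the two tested concentrations surrounding the appropriate level; five concentrations were tested over 48 hours in 96-well plates. GI50 marks 50% less growth.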 The source made the active and inactive calls. Cut-off read from the data, not from the text of the source: active = GI50 up to about 1.1 µM and inactive = higher.

What was measured:
Experiment in all cases: DTP human tumour cell line panel, 48 h
IGROV-1 = tested on: IGROV-1
OVCAR-3 = tested on: OVCAR-3
HCC 2998 = tested on: HCC 2998
BT-549 = tested on: BT-549
MDA-MB-435 = tested on: MDA-MB-435
SN12C = tested on: SN12C
SNB-75 = tested on: SNB-75
OVCAR-4 = tested on: OVCAR-4
ACHN = tested on: ACHN
MDA-N = tested on: MDA-N
HCT-15 = tested on: HCT-15
HT-29 = tested on: HT-29
SNB-19 = tested on: SNB-19
SK-MEL-2 = tested on: SK-MEL-2
OVCAR-5 = tested on: OVCAR-5
SK-MEL-28 = tested on: SK-MEL-28
SR = tested on: SR
TK-10 = tested on: TK-10
MCF7 = tested on: MCF7
T47D = tested on: T47D

| SMILES | GI50 (IGROV-1) | GI50 (OVCAR-3) | GI50 (HCC 2998) | GI50 (BT-549) | GI50 (MDA-MB-435) | GI50 (SN12C) | GI50 (SNB-75) | GI50 (OVCAR-4) | GI50 (ACHN) | GI50 (MDA-N) | GI50 (HCT-15) [µM] | GI50 (HT-29) | GI50 (SNB-19) | GI50 (SK-MEL-2) | GI50 (OVCAR-5) | GI50 (SK-MEL-28) | GI50 (SR) | GI50 (TK-10) | GI50 (MCF7) | GI50 (T47D) |
| --- | --- | --- | --- | --- | --- | --- | --- | --- | --- | --- | --- | --- | --- | --- | --- | --- | --- | --- | --- | --- |
| CC(=O)ON(C(C)=O)c1ccc(-c2nc3ccccc3s2)cc1C | 13 µM (inactive) | 25.8 µM (inactive) | 67.6 µM (inactive) | 70.5 µM (inactive) | 60.3 µM (inactive) | 31 µM (inactive) | 74.1 µM (inactive) | 51.4 µM (inactive) | 32.6 µM (inactive) | 75.5 µM (inactive) | 12.9 | 32 µM (inactive) | 50.1 µM (inactive) | > 100 µM (inactive) | 4.28 µM (inactive) | 76.4 µM (inactive) | 29.2 µM (inactive) | 2.96 µM (inactive) |  |  |
| CC(C)(C)C(=O)C(C#N)C(=O)C(C)(C)C | > 100 µM (inactive) | > 100 µM (inactive) | > 100 µM (inactive) |  | > 100 µM (inactive) | > 100 µM (inactive) | > 100 µM (inactive) | > 100 µM (inactive) | > 100 µM (inactive) | > 100 µM (inactive) | > 100 | > 100 µM (inactive) | > 100 µM (inactive) | > 100 µM (inactive) | > 100 µM (inactive) | > 100 µM (inactive) | 0.0697 µM (active) | > 100 µM (inactive) | > 100 µM (inactive) | > 100 µM (inactive) |
| CCOC(=O)C1CCC(=O)N1C(=O)c1ccccc1 (centres undefined) | > 100 µM (inactive) | > 100 µM (inactive) | > 100 µM (inactive) | > 100 µM (inactive) | > 100 µM (inactive) | > 100 µM (inactive) |  |  | > 100 µM (inactive) |  | > 100 | > 100 µM (inactive) | > 100 µM (inactive) |  | > 100 µM (inactive) | > 100 µM (inactive) | > 100 µM (inactive) | > 100 µM (inactive) | > 100 µM (inactive) | > 100 µM (inactive) |
| COc1ccccc1CC(=O)C(O)(C(F)(F)F)C(F)(F)F | > 100 µM (inactive) | > 100 µM (inactive) | > 100 µM (inactive) |  | > 100 µM (inactive) | > 100 µM (inactive) | 12.7 µM (inactive) | > 100 µM (inactive) | > 100 µM (inactive) | > 100 µM (inactive) | > 100 | > 100 µM (inactive) | > 100 µM (inactive) | > 100 µM (inactive) | > 100 µM (inactive) | > 100 µM (inactive) | > 100 µM (inactive) | > 100 µM (inactive) | > 100 µM (inactive) | > 100 µM (inactive) |
| CC1=CC(C)(C)Nc2ccc(CSc3ccccc3)cc21 | 52.1 µM (inactive) | 18.7 µM (inactive) | 17.2 µM (inactive) | 59.2 µM (inactive) | 25.3 µM (inactive) | 19.1 µM (inactive) | 24.7 µM (inactive) | 21.1 µM (inactive) | 46.6 µM (inactive) | 22 µM (inactive) | 30.9 | 16.1 µM (inactive) | 37.7 µM (inactive) | 23.4 µM (inactive) | 14.9 µM (inactive) | 37.8 µM (inactive) |  | 39.5 µM (inactive) | 22 µM (inactive) |  |
| Cn1c(=O)c(Br)c(C=O)n(CCO[N+](=O)[O-])c1=O |  |  | 15.4 µM (inactive) |  | 5.42 µM (inactive) | 4.34 µM (inactive) | 12.2 µM (inactive) |  | 3.71 µM (inactive) | 4.23 µM (inactive) | 4.83 |  | 26.2 µM (inactive) | 3.59 µM (inactive) | 3.88 µM (inactive) | 2.07 µM (inactive) | 2.16 µM (inactive) | 3.86 µM (inactive) | 1.97 µM (inactive) | 1.87 µM (inactive) |
| COc1ccccc1NC(=S)N/N=C/c1c(C)n(C)n(-c2ccccc2)c1=O | > 100 µM (inactive) |  | > 100 µM (inactive) | > 100 µM (inactive) | 34.6 µM (inactive) |  | 49 µM (inactive) | > 100 µM (inactive) | > 100 µM (inactive) |  | 41.3 | > 100 µM (inactive) | > 100 µM (inactive) | > 100 µM (inactive) |  | > 100 µM (inactive) | 51.6 µM (inactive) | > 100 µM (inactive) | > 100 µM (inactive) | > 100 µM (inactive) |
| CN1C(NCCO)=NS(=O)(=O)c2ccccc21 | > 100 µM (inactive) | > 100 µM (inactive) | > 100 µM (inactive) | > 100 µM (inactive) | > 100 µM (inactive) | > 100 µM (inactive) |  | > 100 µM (inactive) | > 100 µM (inactive) |  | > 100 | > 100 µM (inactive) | > 100 µM (inactive) | > 100 µM (inactive) | > 100 µM (inactive) | > 100 µM (inactive) | 8.75 µM (inactive) | > 100 µM (inactive) | > 100 µM (inactive) | > 100 µM (inactive) |
